Laboratory results published in ChEMBL document CHEMBL3885861, “Open TG-GATES”.

Species: Rattus norvegicus
Experiment: Open TG-GATES - Regimen: Single
Type: toxicity, organism-based, Sprague-Dawley
Design: regimen Single, gender Male, age 6 weeks
Settings: in vivo, po, 1000 mg/kg, route gavage, dose level High; for APTT / Bas / Eos / Fbg / Hb / Ht / Lym / MCH / MCHC / MCV / Mono / Neu / PT / Plat / RBC / Ret / WBC: tissue Blood; for KIDNEY_L / KIDNEY_R / KIDNEY_TOTAL: tissue Kidney; for LIVER: tissue Liver; for A/G / ALP / ALT / AST / BUN / CRE / Ca / Cl / DBIL / GLC / IP / K / LDH / Na / PL / RALB / TBIL / TC / TG / TP / gamma-GTP: tissue Plasma

Compound: Cc1nnc2n1-c1ccc(Cl)cc1C(c1ccccc1Cl)=NC2 [TRIAZOLAM]
- TERMINAL_BW (3 h): 193.6 g
- APTT (3 h): 16 s
- Bas (3 h): 0%
- Eos (3 h): 1%
- Fbg (3 h): 277.8 mg/dL
- Hb (3 h): 13.8 g/dL
- Ht (3 h): 41.7%
- Lym (3 h): 72%
- MCH (3 h): 20.9 pg
- MCHC (3 h): 33.2%
- MCV (3 h): 63 fL
- Mono (3 h): 3.2%
- Neu (3 h): 23%
- PT (3 h): 13.4 s
- Plat (3 h): 135.1 x10_4/uL
- RBC (3 h): 663 x10_4/ul
- Ret (3 h): 9.1%
- WBC (3 h): 64.9 x10_2/uL
- KIDNEY_L (3 h): 0.9 g
- KIDNEY_R (3 h): 0.9 g
- KIDNEY_TOTAL (3 h): 1.8 g
- LIVER (3 h): 8.3 g
- A/G (3 h): 0.9
- ALP (3 h): 1289.6 IU/L
- ALT (3 h): 38.8 IU/L
- AST (3 h): 72 IU/L
- BUN (3 h): 9.4 mg/dL
- CRE (3 h): 0.1 mg/dL
- Ca (3 h): 11 mg/dL
- Cl (3 h): 102.6 meq/L
- DBIL (3 h): 0.008 mg/dL
- GLC (3 h): 174.6 mg/dL
- IP (3 h): 10.4 mg/dL
- K (3 h): 4.3 meq/L
- LDH (3 h): 97.8 IU/L
- Na (3 h): 139.6 meq/L
- PL (3 h): 148.8 mg/dL
- RALB (3 h): 2.4 g/dL
- TBIL (3 h): 0.064 mg/dL
- TC (3 h): 78.2 mg/dL
- TG (3 h): 50 mg/dL
- TP (3 h): 5.2 g/dL
- gamma-GTP (3 h): 1 IU/L
- TERMINAL_BW (6 h): 193.6 g
- APTT (6 h): 18.3 s
- Bas (6 h): 0%
- Eos (6 h): 0.6%
- Fbg (6 h): 282 mg/dL
- Hb (6 h): 13.9 g/dL
- Ht (6 h): 42.3%
- Lym (6 h): 75.8%
- MCH (6 h): 20.6 pg
- MCHC (6 h): 32.8%
- MCV (6 h): 62.8 fL
- Mono (6 h): 2.2%
- Neu (6 h): 20.4%
- PT (6 h): 13.5 s
- Plat (6 h): 122.7 x10_4/uL
- RBC (6 h): 674 x10_4/ul
- Ret (6 h): 8.5%
- WBC (6 h): 87.5 x10_2/uL
- KIDNEY_L (6 h): 0.9 g
- KIDNEY_R (6 h): 0.9 g
- KIDNEY_TOTAL (6 h): 1.8 g
- LIVER (6 h): 8.3 g
- A/G (6 h): 0.9
- ALP (6 h): 1325.6 IU/L
- ALT (6 h): 36 IU/L
- AST (6 h): 67.4 IU/L
- BUN (6 h): 10 mg/dL
- CRE (6 h): 0.1 mg/dL
- Ca (6 h): 11.2 mg/dL
- Cl (6 h): 103.2 meq/L
- DBIL (6 h): 0.012 mg/dL
- GLC (6 h): 184.2 mg/dL
- IP (6 h): 10.9 mg/dL
- K (6 h): 4.5 meq/L
- LDH (6 h): 87.2 IU/L
- Na (6 h): 141.6 meq/L
- PL (6 h): 162.8 mg/dL
- RALB (6 h): 2.5 g/dL
- TBIL (6 h): 0.056 mg/dL
- TC (6 h): 85.4 mg/dL
- TG (6 h): 68.2 mg/dL
- TP (6 h): 5.3 g/dL
- gamma-GTP (6 h): 1.6 IU/L
- TERMINAL_BW (9 h): 192.1 g
- APTT (9 h): 16.7 s
- Bas (9 h): 0%
- Eos (9 h): 0.6%
- Fbg (9 h): 282.6 mg/dL
- Hb (9 h): 13.3 g/dL
- Ht (9 h): 40.5%
- Lym (9 h): 74.2%
- MCH (9 h): 20.9 pg
- MCHC (9 h): 32.8%
- MCV (9 h): 63.8 fL
- Mono (9 h): 2.4%
- Neu (9 h): 21.6%
- PT (9 h): 13.9 s
- Plat (9 h): 116.9 x10_4/uL
- RBC (9 h): 635.4 x10_4/ul
- Ret (9 h): 9.5%
- WBC (9 h): 86.1 x10_2/uL
- KIDNEY_L (9 h): 0.9 g
- KIDNEY_R (9 h): 0.9 g
- KIDNEY_TOTAL (9 h): 1.8 g
- LIVER (9 h): 7.6 g
- A/G (9 h): 0.9
- ALP (9 h): 1384.4 IU/L
- ALT (9 h): 41.8 IU/L
- AST (9 h): 73.4 IU/L
- BUN (9 h): 9 mg/dL
- CRE (9 h): 0.1 mg/dL
- Ca (9 h): 10.9 mg/dL
- Cl (9 h): 104 meq/L
- DBIL (9 h): 0.014 mg/dL
- GLC (9 h): 177.8 mg/dL
- IP (9 h): 10.6 mg/dL
- K (9 h): 4.4 meq/L
- LDH (9 h): 84.2 IU/L
- Na (9 h): 141 meq/L
- PL (9 h): 148 mg/dL
- RALB (9 h): 2.5 g/dL
- TBIL (9 h): 0.064 mg/dL
- TC (9 h): 76.4 mg/dL
- TG (9 h): 56.4 mg/dL
- TP (9 h): 5.1 g/dL
- gamma-GTP (9 h): 1.4 IU/L
- TERMINAL_BW (24 h): 208.3 g
- APTT (24 h): 17 s
- Bas (24 h): 0.2%
- Eos (24 h): 0.8%
- Fbg (24 h): 290.2 mg/dL
- Hb (24 h): 13.9 g/dL
- Ht (24 h): 41.6%
- Lym (24 h): 75.4%
- MCH (24 h): 20.8 pg
- MCHC (24 h): 33.4%
- MCV (24 h): 62.2 fL
- Mono (24 h): 2.8%
- Neu (24 h): 20.4%
- PT (24 h): 13 s
- Plat (24 h): 128.9 x10_4/uL
- RBC (24 h): 669.2 x10_4/ul
- Ret (24 h): 8.2%
- WBC (24 h): 97.7 x10_2/uL
- KIDNEY_L (24 h): 0.9 g
- KIDNEY_R (24 h): 0.9 g
- KIDNEY_TOTAL (24 h): 1.8 g
- LIVER (24 h): 9.9 g
- A/G (24 h): 0.9
- ALP (24 h): 1921.8 IU/L
- ALT (24 h): 44.8 IU/L
- AST (24 h): 60.2 IU/L
- BUN (24 h): 13.6 mg/dL
- CRE (24 h): 0.2 mg/dL
- Ca (24 h): 11.5 mg/dL
- Cl (24 h): 100.8 meq/L
- DBIL (24 h): 0.014 mg/dL
- GLC (24 h): 175.6 mg/dL
- IP (24 h): 10 mg/dL
- K (24 h): 4.3 meq/L
- LDH (24 h): 84.4 IU/L
- Na (24 h): 141.4 meq/L
- PL (24 h): 167.6 mg/dL
- RALB (24 h): 2.7 g/dL
- TBIL (24 h): 0.058 mg/dL
- TC (24 h): 85.2 mg/dL
- TG (24 h): 84.2 mg/dL
- TP (24 h): 5.6 g/dL
- gamma-GTP (24 h): 1 IU/L
